# According to US5047397A, “Linear analogs of atrial natriuretic peptides” (California Biotechnology Inc., priority 1988, dated 1991):
# *1 amine or outer side, *2 acyl side, *3 side chain or, on linkers, in order; H or OH if unused. Where a SMILES comes first, the peptide text is derived from it. Bridges are numbered along the chain shown (N, C = ends). Where no end group is shown, it is not given here. [ ]: non-standard residue; d: D form. The star is where a group is joined. ξ: configuration not given here. X2 = N=C(N)NCCC[C@@H](C(=O)[*:2])N(CCc1ccc(N[*:3])cc1)[*:1]; Phenylacetyl(4-Ph) = O=C(Cc1ccc(-c2ccccc2)cc1)*; Acetyl(2-naphthyloxy) = O=C(COc1ccc2ccccc2c1)*; X5 = O=C(C(Cc1cccc2ccccc12)Cc1cccc2ccccc12)*; ξNaproxenoyl = COc1ccc2cc(C(C)C(=O)*)ccc2c1; Acetyl(2-naphthyl) = O=C(Cc1ccc2ccccc2c1)*; 2Naphthoyl = O=C(c1ccc2ccccc2c1)*; Hydrocinnamoyl = O=C(CCc1ccccc1)*; NMeI = CC[C@H](C)[C@H](NC)C(=O)O; X1 = O=C(Cc1ccc(N[*:1])cc1)[*:2]; Met(O) = CS(=O)CC[C@H](N)C(=O)O; Orn = NCCC[C@H](N)C(=O)O; Sar = CNCC(=O)O; X3 = CCC(C)CN*
# Molecular target: T1, specific ANP receptor sites on BASM or BAE cells (Bos taurus, UniProt P10730)
# T1 construct: specific receptor sites on BASM or BAE cells; endogenous in cells; host or cells: cultured BASM and BAE cells
# T1 sequence (P10730 42-537): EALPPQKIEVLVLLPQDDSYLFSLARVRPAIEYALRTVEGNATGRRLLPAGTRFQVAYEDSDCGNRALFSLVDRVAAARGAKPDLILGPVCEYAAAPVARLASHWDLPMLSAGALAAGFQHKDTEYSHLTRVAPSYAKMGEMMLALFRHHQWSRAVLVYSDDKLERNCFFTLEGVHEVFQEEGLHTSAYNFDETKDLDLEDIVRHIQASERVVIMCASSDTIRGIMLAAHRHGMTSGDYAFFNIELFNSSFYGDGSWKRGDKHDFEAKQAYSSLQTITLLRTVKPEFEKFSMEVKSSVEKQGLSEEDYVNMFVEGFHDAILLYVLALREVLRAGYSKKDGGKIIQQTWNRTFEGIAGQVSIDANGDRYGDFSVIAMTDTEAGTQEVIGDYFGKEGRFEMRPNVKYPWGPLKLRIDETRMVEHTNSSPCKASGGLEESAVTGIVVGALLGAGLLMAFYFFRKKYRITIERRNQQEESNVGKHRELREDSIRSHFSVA
# Test: Competitive displacement receptor binding of (125I)-rANP(126-150) on cultured cells
# Design: species or system bovine
# Conditions: not given
# Description: Analogous "competitive displacement" receptor binding assays are considered commonplace in the art for examining specific ligand-receptor interactions.
# Assuming these ANP analogs act at one or more ANP receptor sites, then increased receptor affinity should reflect increased biological potency.
row,Molecule,"receptor binding / activity as judged by Ki, in words"
1,"CC[C@H](C)[C@H](NC(=O)[C@H](CO)NC(=O)[C@H](CC(=O)O)NC(=O)[C@@H](NC(=O)[C@H](CCCNC(=N)N)NC(=O)CNC(=O)CNC(=O)Cc1ccc2ccccc2c1)[C@@H](C)CC)C(N)=O [AP516, (2-NA)--G--G--R--I--D--S--I--NH2] ({Acetyl(2-naphthyl)}-GGRIDSI-NH2)","very low, if any, activity"
2,"CC[C@H](C)[C@H](NC(=O)[C@H](CCCNC(=N)N)NC(=O)[C@H](CC(=O)O)NC(=O)[C@H](CC[S+](C)[O-])NC(=O)[C@H](CCCNC(=N)N)NC(=O)CNC(=O)CNC(=O)Cc1ccc2ccccc2c1)C(N)=O (stereo partly drawn) [AP515, (2-NA)--G--G--R--MSO--D--R--I--NH2] ({Acetyl(2-naphthyl)}-GGR[Met(O)]DRI-NH2)","very low, if any, activity"

# Same assay, conditions: concentration of unlabeled peptide displacing 50% of maximal binding of 0.5 nM (125I)-rANP(126-150); BASM or BAE cells
row,Molecule,Ki(app)
1,CC[C@H](C)[C@H](NC(=O)[C@H](CCCNC(=N)N)NC(=O)[C@H](CC(=O)O)NC(=O)[C@@H](NC(=O)[C@H](CCCNC(=N)N)NCCc1ccc(NC(=O)COc2ccc3ccccc3c2)cc1)[C@@H](C)CC)C(N)=O [AP816] (H-[X2](Acetyl(2-naphthyloxy))IDRI-NH2),17.4 nM
2,CC[C@H](C)[C@H](NC(=O)[C@H](CCCNC(=N)N)NC(=O)[C@H](CC(=O)O)NC(=O)[C@@H](NC(=O)[C@H](CCCCNC(C)=O)NC(=O)Cc1ccc(NC(=O)COc2ccc3ccccc3c2)cc1)[C@@H](C)CC)C(N)=O [AP801] ({Acetyl(2-naphthyloxy)}-[X1]K(Ac)IDRI-NH2),3.95 nM
3,"AFGGRIDRI-NH2 [AP103, A--F--G--G--R--I--D--R--I--NH2]",12.42 nM
4,"CC[C@H](C)[C@H](NC(=O)[C@H](CO)NC(=O)[C@H](CC(=O)O)NC(=O)[C@@H](NC(=O)[C@H](CCCNC(=N)N)NC(=O)CNC(=O)CNC(=O)Cc1ccc2ccccc2c1)[C@@H](C)CC)C(N)=O [AP516, (2-NA)--G--G--R--I--D--S--I--NH2] ({Acetyl(2-naphthyl)}-GGRIDSI-NH2)",399 nM
5,"CC[C@H](C)[C@H](NC(=O)[C@H](CCCNC(=N)N)NC(=O)CNC(=O)CNC(=O)Cc1ccc2ccccc2c1)C(=O)N[C@@H](CC(=O)O)C(=O)N[C@@H](CCCNC(=N)N)C(=O)N[C@@H](C(N)=O)C(C)C [AP535, (2-NA)--G--G--R--I--D--R--V^ --NH2)] ({Acetyl(2-naphthyl)}-GGRIDR[dV]-NH2)",14.0 nM
6,"CC[C@H](C)[C@H](NC(=O)[C@H](CCC(N)=O)NC(=O)[C@H](CC(=O)O)NC(=O)[C@@H](NC(=O)[C@H](CCCNC(=N)N)NC(=O)CNC(=O)CNC(=O)Cc1ccc2ccccc2c1)[C@@H](C)CC)C(N)=O [AP351, (2-NA)--G--G--R--I--D--Q--I--NH2] ({Acetyl(2-naphthyl)}-GGRIDQI-NH2)",20.0 nM
7,"CCNC(=O)[C@H]([C@@H](C)CC)N(C)C(=O)[C@H](CCCNC(=N)N)NC(=O)[C@H](CC(=O)O)NC(=O)[C@@H](NC(=O)[C@H](CCCNC(=N)N)NC(=O)CNC(=O)CNC(=O)Cc1ccc2ccccc2c1)[C@@H](C)CC [AP596, (2-NA)--G--G--R--I--D--R--NMeIle--NH(ethyl)] ({Acetyl(2-naphthyl)}-GGRIDR[NMeI]-NHEt)",87.3 nM
8,"CC[C@H](C)[C@H](NC(=O)[C@H](CCCNC(=N)N)NC(=O)[C@@H](CC(=O)O)NC(=O)[C@@H](NC(=O)[C@H](CCCNC(=N)N)NC(=O)CNC(=O)CNC(=O)[C@H](Cc1ccccc1)NC(=O)[C@H](C)N)[C@@H](C)CC)C(=O)NCC(=O)N[C@@H](C)C(N)=O [AP303, A--F--G--G--R--I--D^ --R--I--G--A--NH2] (H-AFGGRI[dD]RIGA-NH2)",> 200 nM
9,CC[C@H](C)[C@H](NC(=O)[C@H](CCCNC(=N)N)NC(=O)[C@H](CC(=O)O)NC(=O)[C@@H](NC(=O)[C@H](CCCNC(=N)N)NC(=O)CNC(=O)CNC(=O)C(Cc1cccc2ccccc12)Cc1cccc2ccccc12)[C@@H](C)CC)C(=O)NCC(=O)N[C@@H](C)C(N)=O [AP533] (X5-GGRIDRIGA-NH2),52.0 nM
10,"CC[C@H](C)[C@@H]1NC(=O)[C@H](CCCNC(=N)N)NC(=O)[C@H](CC(=O)O)NC(=O)[C@H]([C@@H](C)CC)NC(=O)[C@H](CCCNC(=N)N)NC(=O)CNC(=O)[C@@H](NC(=O)[C@H](CO)NC(=O)[C@H](CO)NC(=O)[C@@H](N)CCCNC(=N)N)CSSC[C@@H](C(=O)N[C@@H](CC(N)=O)C(=O)N[C@@H](CO)C(=O)N[C@@H](Cc2ccccc2)C(=O)N[C@@H](CCCNC(=N)N)C(=O)N[C@@H](Cc2ccc(O)cc2)C(=O)O)NC(=O)CNC(=O)[C@H](CC(C)C)NC(=O)CNC(=O)[C@H](CO)NC(=O)[C@H](CCC(N)=O)NC(=O)[C@H](C)NC(=O)CNC1=O [AP24, R--S--S--C--G--R--I--D--R--I--G--A--Q--S--G--L--G--C--N--S--F--R--Y] (H-RSSCGRIDRIGAQSGLGCNSFRY-OH; disulfide 4-18)",25.2 nM
11,"CC[C@H](C)[C@H](NC(=O)[C@H](CCCNC(=N)N)NC(=O)[C@H](CC(=O)O)NC(=O)[C@H](CC[S+](C)[O-])NC(=O)[C@H](CCCNC(=N)N)NC(=O)CNC(=O)CNC(=O)Cc1ccc2ccccc2c1)C(N)=O (stereo partly drawn) [AP515, (2-NA)--G--G--R--MSO--D--R--I--NH2] ({Acetyl(2-naphthyl)}-GGR[Met(O)]DRI-NH2)",> 400 nM
12,CC[C@H](C)[C@H](NC(=O)[C@H](CCCNC(=N)N)NC(=O)[C@H](CC(=O)O)NC[C@@H](NC(=O)[C@H](CCCNC(=N)N)NC(=O)Cc1ccc(NC(=O)Cc2ccc3ccccc3c2)cc1)[C@@H](C)CC)C(N)=O [AP701],60.3 nM
13,"CC[C@H](C)[C@H](NC(=O)[C@H](CCCNC(=N)N)NC(=O)[C@H](CC(=O)O)NC(=O)[C@@H](NC(=O)[C@H](CCCNC(=N)N)NC(=O)CNC(=O)CNC(=O)CCc1ccccc1)[C@@H](C)CC)C(N)=O [AP132, (desNH2 --F)--G--G--R--I--D--R--I--NH2] (Hydrocinnamoyl-GGRIDRI-NH2)",10.15 nM
14,"CC[C@H](C)[C@H](NC(=O)[C@H](CCCNC(=N)N)NC(=O)[C@H](CC(=O)O)NC(=O)[C@@H](NC(=O)[C@H](CCCNC(=N)N)NC(=O)CNC(=O)CNC(=O)Cc1ccc(-c2ccccc2)cc1)[C@@H](C)CC)C(N)=O [AP317, (4-BPA)--G--G--R--I--D--R--I--NH2] ({Phenylacetyl(4-Ph)}-GGRIDRI-NH2)",123.8 nM
15,CC[C@H](C)[C@H](NC(=O)[C@H](CCCNC(=N)N)NC(=O)[C@H](CC(=O)O)NC(=O)[C@@H](NC[C@H](CCCCN)NC(=O)Cc1ccc(NC(=O)COc2ccc3ccccc3c2)cc1)[C@@H](C)CC)C(N)=O [AP808],98.9 nM
16,CC[C@H](C)[C@H](NC(=O)[C@H](CCCNC(=N)N)NC(=O)[C@H](CC(=O)O)NC(=O)[C@@H](NC(=O)[C@H](CCCN)NC(=O)Cc1ccc(NC(=O)COc2ccc3ccccc3c2)cc1)[C@@H](C)CC)C(N)=O [AP815] ({Acetyl(2-naphthyloxy)}-[X1][Orn]IDRI-NH2),10.0 nM
17,"CC[C@H](C)[C@@H]1NC(=O)[C@H](CCCNC(=N)N)NC(=O)[C@H](CC(=O)O)NC(=O)[C@H]([C@@H](C)CC)NC(=O)[C@H](CCCNC(=N)N)NC(=O)CNC(=O)CNC(=O)[C@@H](NC(=O)[C@H](CO)NC(=O)[C@H](CO)NC(=O)[C@@H](N)CCCNC(=N)N)CSSC[C@@H](C(=O)N[C@@H](CC(N)=O)C(=O)N[C@@H](CO)C(=O)N[C@@H](Cc2ccccc2)C(=O)N[C@@H](CCCNC(=N)N)C(=O)N[C@@H](Cc2ccc(O)cc2)C(=O)O)NC(=O)CNC(=O)[C@H](CC(C)C)NC(=O)CNC(=O)[C@H](CO)NC(=O)[C@H](CCC(N)=O)NC(=O)[C@H](C)NC(=O)CNC1=O [AP23, R--S--S--C--G--G--R--I--D--R--I--G--A--Q--S--G--L--G--C--N--S--F--R--Y] (H-RSSCGGRIDRIGAQSGLGCNSFRY-OH; disulfide 4-19)",7.76 nM
18,"CC[C@H](C)[C@H](NC(=O)[C@H](CCCNC(=N)N)NC(=O)CNC(=O)CNC(=O)Cc1ccc2ccccc2c1)C(=O)N[C@@H](CC(=O)O)C(=O)N[C@@H](CCCNC(=N)N)C(=O)N[C@@H](CC(C)C)C(N)=O [AP332, (2-NA)--G--G--R--I--D--R--L--NH2] ({Acetyl(2-naphthyl)}-GGRIDRL-NH2)",44.2 nM
19,CC[C@H](C)[C@H](NC(=O)[C@H](CCCNC(=N)N)NC(=O)[C@H](CC(=O)O)NC(=O)[C@@H](NC(=O)[C@H](CCCNC(=N)N)NC(=O)Cc1ccc(NC(=O)c2ccc3ccccc3c2)cc1)[C@@H](C)CC)C(N)=O [AP790] (2Naphthoyl-[X1]RIDRI-NH2),5.2 nM
20,"CC[C@H](C)[C@H](NC(=O)[C@H](CCCNC(=N)N)NC(=O)[C@H](CC(=O)O)NC(=O)[C@@H](NC(=O)[C@H](CCCNC(=N)N)NC(=O)CNC(=O)CNC(=O)C(C)c1ccc2cc(OC)ccc2c1)[C@@H](C)CC)C(=O)NCC(=O)N[C@@H](C)C(N)=O (stereo partly drawn) [AP528, 2(2'-(6'-MeONAP))--G--G--R--I--D--R--I--G--A--NH2] (ξNaproxenoyl-GGRIDRIGA-NH2)",22.5 nM
21,"CC[C@H](C)[C@H](NC(=O)[C@H](CCCNC(=N)N)NC(=O)[C@H](CC(=O)O)NC(=O)[C@@H](NC(=O)[C@H](CCCNC(=N)N)NC(=O)CN(C)C(=O)CNC(=O)Cc1ccc2ccccc2c1)[C@@H](C)CC)C(N)=O [AP320, (2-NA)--G--(Sar)--R--I--D--R--I--NH2] ({Acetyl(2-naphthyl)}-G[Sar]RIDRI-NH2)",47.4 nM
22,"CCC(C)CNC(=O)[C@H](CCCNC(=N)N)NC(=O)[C@H](CC(=O)O)NC(=O)[C@@H](NC(=O)[C@H](CCCNC(=N)N)NC(=O)CNC(=O)CNC(=O)Cc1ccc2ccccc2c1)[C@@H](C)CC (stereo partly drawn) [AP511, (2-NA)GGRIDRNHCH2CH(CH3)CH3 CH3] ({Acetyl(2-naphthyl)}-GGRIDR-X3)",84.7 nM
